According to patent US8877748B2, “Heterocyclic fused anthraquinone derivatives, manufacturing method and pharmaceutical composition using thereof” (National Defense Medical Center, priority 2012, dated 2014):

Columns and labels:
SF-295 = test: NCI one-dose screening, CNS cancer SF-295; format: cell-based, human; details: 10 μM
LOX IMVI = test: NCI one-dose screening, melanoma LOX IMVI; format: cell-based, human; details: 10 μM
NCI-H522 = test: NCI one-dose screening, non-small cell lung cancer NCI-H522; format: cell-based, human; details: 10 μM
CAKI-1 = test: NCI one-dose screening, renal cancer CAKI-1; format: cell-based, human; details: 10 μM
[1] = system: PC-3 prostate cancer cell line; test: SRB assay cell viability, PC-3 prostate cancer cell line; format: cell-based, human; details: Homo sapiens, PC-3 prostate cancer cell line, Table II prints no unit, μM printed, read-out: SRB assay: 50% inhibition of cancer cell proliferation of sample concentration (IC50) of PC-3 prostate cancer cell line
HCT-116 = test: NCI one-dose screening, colon cancer HCT-116; format: cell-based, human; details: 10 μM
NCI-H226 = test: NCI one-dose screening, non-small cell lung cancer NCI-H226; format: cell-based, human; details: 10 μM
MDA, -MB-435 = test: NCI one-dose screening, breast cancer MDA, -MB-435; format: cell-based, human; details: 10 μM; listed under Melanoma
PC-3 = test: NCI one-dose screening, prostate cancer PC-3; format: cell-based, human; details: 10 μM
MOLT-4 = test: NCI one-dose screening, leukemia MOLT-4; format: cell-based, human; details: 10 μM
TK-10 = test: NCI one-dose screening, renal cancer TK-10; format: cell-based, human; details: 10 μM
K562cell line = test: NCI one-dose screening, leukemia K562; format: cell-based, human; details: 10 μM
SK-MEL-5 = test: NCI one-dose screening, melanoma SK-MEL-5; format: cell-based, human; details: 10 μM
COLO 205 = test: NCI one-dose screening, colon cancer COLO 205; format: cell-based, human; details: 10 μM
UACC-62 = test: NCI one-dose screening, melanoma UACC-62; format: cell-based, human; details: 10 μM
RXF, 393 = test: NCI one-dose screening, renal cancer RXF, 393; format: cell-based, human; details: 10 μM
NCl/ADR-RES = test: NCI one-dose screening, breast cancer NCl/ADR-RES; format: cell-based, human; details: 10 μM; listed under Ovarian cancer
M14 = test: NCI one-dose screening, melanoma M14; format: cell-based, human; details: 10 μM
OVCAR-8 = test: NCI one-dose screening, ovarian cancer OVCAR-8; format: cell-based, human; details: 10 μM
MCF7 = test: NCI one-dose screening, breast cancer MCF7; format: cell-based, human; details: 10 μM
SR = test: NCI one-dose screening, leukemia SR; format: cell-based, human; details: 10 μM
IGROV1 = test: NCI one-dose screening, ovarian cancer IGROV1; format: cell-based, human; details: 10 μM
HOP-92 = test: NCI one-dose screening, non-small cell lung cancer HOP-92; format: cell-based, human; details: 10 μM
HT29 = test: NCI one-dose screening, colon cancer HT29; format: cell-based, human; details: 10 μM
NCI-H23 = test: NCI one-dose screening, non-small cell lung cancer NCI-H23; format: cell-based, human; details: 10 μM
HL-60, TB = test: NCI one-dose screening, leukemia HL-60, TB; format: cell-based, human; details: 10 μM
T-47D = test: NCI one-dose screening, breast cancer T-47D; format: cell-based, human; details: 10 μM
NCI-H322M = test: NCI one-dose screening, non-small cell lung cancer NCI-H322M; format: cell-based, human; details: 10 μM; Non-small cell lung cancer
PRMI-8226 cell line = test: NCI one-dose screening, leukemia PRMI-8226; format: cell-based, human; details: 10 μM
HCC-2998 = test: NCI one-dose screening, colon cancer HCC-2998; format: cell-based, human; details: 10 μM
MDA-MB-231/ATCC = test: NCI one-dose screening, breast cancer MDA-MB-231/ATCC; format: cell-based, human; details: 10 μM
U251 = test: NCI one-dose screening, CNS cancer U251; format: cell-based, human; details: 10 μM
MALME-3M = test: NCI one-dose screening, melanoma MALME-3M; format: cell-based, human; details: 10 μM
SNB-19 = test: NCI one-dose screening, CNS cancer SNB-19; format: cell-based, human; details: 10 μM
SK-MEL-28 = test: NCI one-dose screening, melanoma SK-MEL-28; format: cell-based, human; details: 10 μM
SK-MEL-2 = test: NCI one-dose screening, melanoma SK-MEL-2; format: cell-based, human; details: 10 μM
HCT-15 = test: NCI one-dose screening, colon cancer HCT-15; format: cell-based, human; details: 10 μM
HOP-62 = test: NCI one-dose screening, non-small cell lung cancer HOP-62; format: cell-based, human; details: 10 μM
human tumor cell lines = test: NCI one-dose screening, Mean / Delta / Range of growth percent over all tested cell lines; format: cell-based; details: 10 μM
NCI-H460 = test: NCI one-dose screening, non-small cell lung cancer NCI-H460; format: cell-based, human; details: 10 μM
BT-549 = test: NCI one-dose screening, breast cancer BT-549; format: cell-based, human; details: 10 μM
KM12 = test: NCI one-dose screening, colon cancer KM12; format: cell-based, human; details: 10 μM
SNB-75 = test: NCI one-dose screening, CNS cancer SNB-75; format: cell-based, human; details: 10 μM
OVCAR-4 = test: NCI one-dose screening, ovarian cancer OVCAR-4; format: cell-based, human; details: 10 μM
SF-539 = test: NCI one-dose screening, CNS cancer SF-539; format: cell-based, human; details: 10 μM
A549/ATCC = test: NCI one-dose screening, non-small cell lung cancer A549/ATCC; format: cell-based, human; details: 10 μM
UO-31 = test: NCI one-dose screening, renal cancer UO-31; format: cell-based, human; details: 10 μM
SN12C = test: NCI one-dose screening, renal cancer SN12C; format: cell-based, human; details: 10 μM
ACHN = test: NCI one-dose screening, renal cancer ACHN; format: cell-based, human; details: 10 μM
DU145 = test: NCI one-dose screening, prostate cancer DU145; format: cell-based, human; details: 10 μM
SF-268 = test: NCI one-dose screening, CNS cancer SF-268; format: cell-based, human; details: 10 μM
CCRF-CEM = test: NCI screening platform one-dose single concentration screening, leukemia CCRF-CEM; format: cell-based, human; details: 10 μM
OVCAR-3 = test: NCI one-dose screening, ovarian cancer OVCAR-3; format: cell-based, human; details: 10 μM
UACC-257 = test: NCI one-dose screening, melanoma UACC-257; format: cell-based, human; details: 10 μM
OVCAR-5 = test: NCI one-dose screening, ovarian cancer OVCAR-5; format: cell-based, human; details: 10 μM
HS 578-T = test: NCI one-dose screening, breast cancer HS 578-T; format: cell-based, human; details: 10 μM; Breast cancer
EKVX = test: NCI one-dose screening, non-small cell lung cancer EKVX; format: cell-based, human; details: 10 μM
MDA-MB-468 = test: NCI one-dose screening, breast cancer MDA-MB-468; format: cell-based, human; details: 10 μM
786-O = test: NCI one-dose screening, renal cancer 786-O; format: cell-based, human; details: 10 μM

Compound: O=C1c2ccccc2C(=O)c2c1cc(Nc1ccc(Cl)cc1)c1nsnc21 [C60, 4-(4-chloro-phenylamino)anthra[2,1-c] [1,2,5]thiadiazol-6,11-dione]
- Growth Percent SF-295 (SF-295): 78.76%
- Growth Percent LOX IMVI (LOX IMVI): 27.09%
- Growth Percent NCI-H522 (NCI-H522): 49.77%
- Growth Percent CAKI-1 (CAKI-1): 58.59%
- IC50 [1]: 9.5 µM
- Growth Percent HCT-116 (HCT-116): 40.51%
- Growth Percent NCI-H226 (NCI-H226): 66.43%
- Growth Percent MDA-MB-435 (MDA, -MB-435): 72.21%
- Growth Percent PC-3 (PC-3): 42.48%
- Growth Percent MOLT-4 (MOLT-4): 11.82%
- Growth Percent TK-10 (TK-10): 100.37%
- Growth Percent K562 (K562cell line): 32.82%
- Growth Percent SK-MEL-5 (SK-MEL-5): 29.92%
- Growth Percent COLO 205 (COLO 205): 94.87%
- Growth Percent UACC-62 (UACC-62): 64.65%
- Growth Percent RXF 393 (RXF, 393): 66.60%
- Growth Percent NCI/ADR-RES (NCl/ADR-RES): 55.91%
- Growth Percent M14 (M14): 106.75%
- Growth Percent OVCAR-8 (OVCAR-8): 45.71%
- Growth Percent MCF7 (MCF7): 59.01%
- Growth Percent SR (SR): 19.52%
- Growth Percent IGROV1 (IGROV1): 55.18%
- Growth Percent HOP-92 (HOP-92): 88.03%
- Growth Percent HT29 (HT29): 91.07%
- Growth Percent NCI-H23 (NCI-H23): 58.67%
- Growth Percent HL-60(TB) (HL-60, TB): 23.13%
- Growth Percent T-47D (T-47D): 65.23%
- Growth Percent NCI-H322M (NCI-H322M): 91.20%
- Growth Percent RPMI-8226 (PRMI-8226 cell line): 36.51%
- Growth Percent HCC-2998 (HCC-2998): 91.26%
- Growth Percent MDA-MB-231/ATCC (MDA-MB-231/ATCC): 57.00%
- Growth Percent U251 (U251): 35.47%
- Growth Percent MALME-3M (MALME-3M): 61.29%
- Growth Percent SNB-19 (SNB-19): 87.03%
- Growth Percent SK-MEL-28 (SK-MEL-28): 77.13%
- Growth Percent SK-MEL-2 (SK-MEL-2): 84.09%
- Growth Percent HCT-15 (HCT-15): 37.73%
- Growth Percent HOP-62 (HOP-62): 71.23%
- Growth Percent Delta (human tumor cell lines; delta over all cell lines): 53.61%
- Growth Percent Mean (human tumor cell lines; mean over all cell lines): 63.19%
- Growth Percent Range (human tumor cell lines; range over all cell lines): 111.63%
- Growth Percent NCI-H460 (NCI-H460): 29.27%
- Growth Percent BT-549 (BT-549): 96.78%
- Growth Percent KM12 (KM12): 71.40%
- Growth Percent SNB-75 (SNB-75): 69.41%
- Growth Percent OVCAR-4 (OVCAR-4): 9.58%
- Growth Percent SF-539 (SF-539): 69.85%
- Growth Percent A549/ATCC (A549/ATCC): 72.79%
- Growth Percent UO-31 (UO-31): 49.04%
- Growth Percent SN12C (SN12C): 81.98%
- Growth Percent ACHN (ACHN): 70.10%
- Growth Percent DU145 (DU145): 87.28%
- Growth Percent SF-268 (SF-268): 63.91%
- Growth Percent CCRF-CEM (CCRF-CEM): 44.80%
- Growth Percent OVCAR-3 (OVCAR-3): 76.23%
- Growth Percent UACC-257 (UACC-257): 69.64%
- Growth Percent OVCAR-5 (OVCAR-5): 121.21%
- Growth Percent HS 578T (HS 578-T): 76.50%
- Growth Percent EKVX (EKVX): 81.16%
- Growth Percent MDA-MB-468 (MDA-MB-468): 32.52%
- Growth Percent 786-0 (786-O): 95.95%
